Measurements as given in patent US7803801B2, “Aminopyridine compounds having Syk inhibitory activity” (Japan Tobacco, Inc., priority 2005, dated 2010).
Counter-ions that a name gives are not always drawn. Like-named read-outs stand apart in the source and are kept apart here.

Assays:
[1] = biological target: GST-Syk Full Protein (human) (Homo sapiens, UniProt P43405); test: Syk kinase inhibition test (HTRF method); type: biochemical
Method in brief: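 HTRF read-out: after EDTA termination and 1 h with XL665-streptavidin and Eu-anti-phosphotyrosine, the 665/620 nm ratio was measured. The reaction ran 30 min at 20–25 °C with final 6.4 nM human GST-Syk, 250 nM biotinylated peptide, 100 μM ATP, pH 7.0 HEPES buffer, 2% DMSO.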

[2] = test system: cultured human mast cells; test: Degranulation inhibition test using cultured human mast cells (IgE cross-linking, β-Hexosaminidase release); type: cell-based; settings: Mast cell, cultured human mast cells, read-out: human degranulation ave. IC50
Method in brief: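 Degranulation was triggered by anti-hIgE (10 μg/mL final, 30 min, 37 °C) after a 10-min compound pretreatment (DMSO 0.1%) of cord-blood CD34+-derived mast cells primed 5 days with IL-4 and IgE. β-Hexosaminidase in supernatant was measured with p-nitrophenyl-GlcNAc substrate (A405), expressed against water-lysed total; IC50 (M).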

[3] = Tables 1-x, compounds A, read-out: sykHTRF ave IC50
[4] = HTRF, 100 μM ATP, 30 min room temperature, average, read-out: sykHTRF ave IC50
[5] = anti-hIgE stimulation, β-Hexosaminidase index, average

Row | SMILES | IC50 [1, 3] | IC50 ([2]; Tables 1-x, compounds A) | IC50 [1, 4] | IC50 [2, 5] | also measured
1 | Cc1ccnc(Nc2cccc(-c3cnc(N4CCOc5c(C(=O)O)cccc54)s3)n2)c1 [Compound A-614, 4-{5-[6-(4-methylpyridin-2-ylamino)pyridin-2-yl]thiazol-2-yl}-3,4-dihydro-2H-benzo[1,4]oxazine-8-carboxylic acid] | < 100 nM | > 1000 nM | – | – | –
2 | Cc1ccnc(Nc2cccc(-c3cnc(N(C)C4CCC(C(=O)O)CC4)s3)n2)c1 (centres unmarked) [Compound A-444, 4-(methyl-{5-[6-(4-methylpyridin-2-ylamino)pyridin-2-yl]thiazol-2-yl}amino)cyclohexanecarboxylic acid] | < 100 nM | 100 to 1000 nM | – | – | –
3 | Cc1ccnc(Nc2cccc(-c3cnc(N(C)C4CCNCC4)s3)n2)c1 [Compound A-452, N-methyl-N-{5-[6-(4-methylpyridin-2-ylamino)pyridin-2-yl]thiazol-2-yl}-N-piperidin-4-ylamine] | < 100 nM | > 1000 nM | – | – | –
4 | Cc1ccnc(Nc2cccc(-c3cnc(N(C)c4ccc(CC(=O)O)cc4)s3)n2)c1 [Compound A-617, [4-(N-methyl-N-{5-[6-(4-methylpyridin-2-ylamino)pyridin-2-yl]thiazol-2-yl}amino)phenyl]acetic acid dihydrochloride] | < 100 nM | > 1000 nM | – | – | –
5 | Cc1ccnc(Nc2cccc(-c3cnc(CNc4ccc(CC(=O)O)cc4)s3)n2)c1 [Compound A-262] | – | – | 100 to 1000 nM | > 1000 nM | –
6 | Cc1ccnc(Nc2cccc(-c3cnc([C@H](CCCCNC(=O)OC(C)(C)C)NC(=O)OCc4ccccc4)s3)n2)c1 [Compound A-49] | – | – | > 1000 nM | > 1000 nM | –
7 | CC(=O)c1ccnc(Nc2cccc(-c3cnc(N4CCC[C@H]4C(=O)O)s3)n2)c1 [Compound A-564, (S)-1-{5-[6-(4-acetylpyridin-2-ylamino)pyridin-2-yl]thiazol-2-yl}pyrrolidine-2-carboxylic acid dihydrochloride] | < 100 nM | > 1000 nM | – | – | –
8 | Cc1ccnc(Nc2cccc(-c3cnc([C@@H](N)Cc4ccc(N)cc4)s3)n2)c1 [Compound A-180] | – | – | 100 to 1000 nM | > 1000 nM | –
9 | Cc1ccnc(Nc2cccc(-c3cnc([C@@H]4COC(=O)N4)s3)n2)c1 [Compound A-14, (S)-4-{5-[6-(4-methylpyridin-2-ylamino)pyridin-2-yl]thiazol-2-yl}oxazolidin-2-one] | – | – | < 100 nM | 100 to 1000 nM | –
10 | Cc1ccnc(Nc2cccc(-c3cnc([C@H]4CC[C@H](C(N)=O)CC4)s3)n2)c1 [Compound A-111, trans-4-{5-[6-(4-methylpyridin-2-ylamino)pyridin-2-yl]thiazol-2-yl}cyclohexanecarboxamide] | – | – | < 100 nM | 100 to 1000 nM | –
11 | Cc1ccnc(Nc2cccc(-c3cnc(CCc4ccc(C(=O)O)cc4)s3)n2)c1 [Compound A-151, 4-(2-{5-[6-(4-methylpyridin-2-ylamino)pyridin-2-yl]thiazol-2-yl}ethyl)benzoic acid] | – | – | < 100 nM | 100 to 1000 nM | –
12 | Cc1ccnc(Nc2cccc(-c3cnc(CC(C)(C)N)s3)n2)c1 [Compound A-333] | – | – | 100 to 1000 nM | 100 to 1000 nM | –
13 | O=C(O)[C@H]1CC[C@H](c2ncc(-c3cccc(Nc4cc5ccccc5cn4)n3)s2)CC1 [Compound A-215, trans-4-{5-[6-(isoquinolin-3-ylamino)pyridin-2-yl]thiazol-2-yl}cyclohexanecarboxylic acid] | – | – | < 100 nM | 100 to 1000 nM | –
14 | Cc1ccnc(Nc2cccc(-c3ccc(CNCCC(=O)O)s3)n2)c1 [Compound B-103] | – | – | – | – | IC50 ([1]; Tables 2-x, thiophene compounds B, read-out: sykHTRK ave IC50): 100 to 1000 nM; IC50 ([2]; Tables 2-x, thiophene compounds B): > 1000 nM
15 | Cc1ccnc(Nc2cccc(-c3cnc(CCCCC(=O)NS(C)(=O)=O)s3)n2)c1 [Compound A-171] | – | – | 100 to 1000 nM | > 1000 nM | –
16 | Cc1ccnc(Nc2cccc(-c3cnc(N4CCC[C@H]4C(=O)NCC(F)(F)F)s3)n2)c1 [Compound A-530, N-(2,2,2-trifluoroethyl)-(S)-1-{5-[6-(4-methylpyridin-2-ylamino)pyridin-2-yl]thiazol-2-yl}pyrrolidine-2-carboxamide] | < 100 nM | 100 to 1000 nM | – | – | –

Row | SMILES | IC50 [1, 3] | IC50 ([2]; Tables 1-x, compounds A) | IC50 [1, 4] | IC50 [2, 5] | also measured
17 | CC(=O)N[C@@H](C)c1nc(C(N)=O)c(-c2cccc(Nc3cc(C)ccn3)n2)s1 [Compound A-117] | – | – | > 1000 nM | > 1000 nM | –
18 | CNC(=O)c1ncc(-c2cccc(Nc3cc(C)ccn3)n2)s1 [Compound A-47, N-methyl-5-[6-(4-methylpyridin-2-ylamino)pyridin-2-yl]thiazole-2-carboxamide] | – | – | < 100 nM | 100 to 1000 nM | –
19 | CC(=O)c1ncc(-c2cccc(Nc3cc(C)ccn3)n2)s1 [Compound A-27, 1-{5-[6-(4-methylpyridin-2-ylamino)pyridin-2-yl]thiazol-2-yl}ethanone] | – | – | < 100 nM | 100 to 1000 nM | –
20 | Cc1ccnc(Nc2cccc(-c3cnc(N(C)CC(=O)N[C@H](C(=O)O)C(C)C)s3)n2)c1 [Compound A-568, (S)-3-methyl-2-[2-(N-methyl-N-{5-[6-(4-methylpyridin-2-ylamino)pyridin-2-yl]thiazol-2-yl}amino)acetylamino]butyric acid dihydrochloride] | < 100 nM | > 1000 nM | – | – | –
21 | Cc1ccnc(Nc2cccc(-c3cnc(N(C)C4CCC(C(N)=O)CC4)s3)n2)c1 (centres unmarked) [Compound A-446, 4-(N-methyl-N-{5-[6-(4-methylpyridin-2-ylamino)pyridin-2-yl]thiazol-2-yl}amino)cyclohexanecarboxamide] | < 100 nM | 100 to 1000 nM | – | – | –
22 | Cc1ccnc(Nc2cccc(-c3cnc(C4CCN(CC(=O)O)CC4)s3)n2)c1 [Compound A-185] | – | – | 100 to 1000 nM | > 1000 nM | –
23 | COC(CN(C)c1ncc(-c2cccc(Nc3cc(C)ccn3)n2)s1)OC [Compound A-457, N-(2,2-dimethoxyethyl)-N-methyl-N-{5-[6-(4-methylpyridin-2-ylamino)pyridin-2-yl]thiazol-2-yl}amine] | < 100 nM | 100 to 1000 nM | – | – | –
24 | Cc1ccnc(Nc2cccc(-c3cnc(N4CCC(CCC(=O)O)CC4)s3)n2)c1 [Compound A-17, 3-(1-{5-[6-(4-methyl-pyridin-2-ylamino)pyridin-2-yl]thiazol-2-yl}piperidin-4-yl)propionic acid] | – | – | < 100 nM | 100 to 1000 nM | –
25 | Cc1ccnc(Nc2cccc(-c3cnc(C4CCCN(S(C)(=O)=O)C4)s3)n2)c1 (centres unmarked) [Compound A-392] | 100 to 1000 nM | 100 to 1000 nM | – | – | –
26 | Cc1ccnc(Nc2cccc(-c3cnc([C@@H]4CCCC(=O)N4)s3)n2)c1 [Compound A-363] | – | – | 100 to 1000 nM | 100 to 1000 nM | –
27 | Cc1ccnc(Nc2cccc(-c3cnc(C4CCN(S(C)(=O)=O)CC4)s3)n2)c1 [Compound A-353] | – | – | 100 to 1000 nM | 100 to 1000 nM | –
28 | Cc1ccnc(Nc2cccc(-c3cnc(CN4CCC(O)CC4)s3)n2)c1 [Compound A-152, 1-{5-[6-(4-methylpyridin-2-ylamino)pyridin-2-yl]thiazol-2-ylmethyl}piperidin-4-ol] | – | – | < 100 nM | 100 to 1000 nM | –
29 | Cc1ccnc(Nc2cccc(-c3cnc(COCC(=O)N4CC(=O)NC(=O)C4)s3)n2)c1 [Compound A-393] | 100 to 1000 nM | > 1000 nM | – | – | –
30 | COC(=O)COCc1ncc(-c2cccc(Nc3cc(C)ccn3)n2)s1 [Compound A-361] | – | – | 100 to 1000 nM | 100 to 1000 nM | –
31 | Cc1ccnc(Nc2cccc(-c3cnc([C@H]4CC[C@H](C#N)CC4)s3)n2)c1 [Compound A-316, trans-4-{5-[6-(4-methylpyridin-2-ylamino)pyridin-2-yl]thiazol-2-yl}cyclohexanecarbonitrile] | – | – | < 100 nM | 100 to 1000 nM | –
